Test results: patent US20190300892A1, “CONSTRUCTS AND METHODS FOR BIOSYNTHESIS OF GALANTHAMINE” (priority 2014, published 2019)
Entries after “also recorded” stand apart in the source; their conditions may differ. Read-outs that look alike come from different tables or passages of the source.

How the values were obtained:
NpN4OMT1 = biological target: T1, NpN4OMT1 (Narcissus aff. pseudonarcissus MK-2014, UniProt A0A077EWA5); type: biochemical; conditions: for enzymatic activity upon addition of divalent cation: cation dependence test, 5 min assays, 4 μM norbelladine, 37° C.
T1 construct: made in house; host or cells: E. coli BL21(DE3) Codon Plus RIL
Experimental: Enzyme assays for initial testing of NpN4OMT1 contained 10 μg of pure protein with 200 μM AdoMet, 100 μM norbelladine and 30 mM potassium phosphate buffer pH 8.0 in 100 μl. The assays were incubated for 2 hr at 30° C. The vector control was an E. coli extract purified with TALON in the same way as the methyltransferase protein. For the vector control assay, an equal volume of the pure vector control extract was substituted for the NpN40MT1 protein in the enzyme assay. These assays were quenched by adjusting the pH to 9.5 with two volumes of sodium bicarbonate and extracted with two volumes ethyl acetate two times. After drying, the extracts were re-suspended in the initial mobile phase of the HPLC program. The HPLC separation of the assays was performed using a phenomenex Luna C8(2) 5 m 250×4.6 mm column with solvent A (0.1% formic acid in H2O) and solvent B (acetonitrile). The program started with 10% solvent B and a flow rate of 0.8 ml/min, a linear gradient began at 2 min to 30% at 15 min, 90% at 15.1 min, 90% at 20 min, 10% at 21 min and 10% at 28 min. Injection volume was 20 μl using a Waters auto-sampler. Waters UV detector was set to 277 nm.
After optimization of the NpN4OMT assay, the buffer was changed to […] glycine at pH 8.8, with 5 mM of MgCl2 added and the temperature was increased to 37° C. in 100 μl total reaction volume. When performing kinetic assays, the E. coli enzyme Pfs was added to break down SAH and prevent product inhibition. Papaverine was used as an internal standard.
With the same solvent system as for screening enzyme assays, the HPLC program started with 20% B and a flow rate of 0.8 ml/min, a linear gradient began at 2 min to 25.4% B at 7 min, 90% at 7.2 min, 90% at 9 min, 20% at 9.1 min and 20% at 14 min. A 4000 QTRAP mass spectrometer coupled to the same LC column and time program as used in HPLC was used to collect all compound mass and fragmentation data.
For NpN4OMT norbelladine kinetics an MRM program in positive ion mode was used to monitor the following fragments 260.00 [M+H]^+/138.00 [M−C8H9O]^+• m/z, 260.00 [M+H]^+/121.00 [M−C7H8NO2]^+• m/z, 274.00 [M+H]^+/137.00 [M+H—C8H9O2]^+ m/z, 274.00 [M+H]^+/122.00 [M+H—C8H10NO2]^+ m/z. The fragments with 260.00 [M+H]^+ m/z and 274.00 [M+H]^+ m/z molecular ions were replaced when looking at N-methylnorbelladine for 274.00 [M+H]^+/152.10 [M−C8H9O]^+• m/z, 274.00 [M+H]^+/121.00 [M−C9H12NO2]^+• m/z, 288.00 [M+H]^+/150.10 [M−C8H9O2]^+• m/z and 288.20 [M+H]^+/137.00 [M−C9H12NO]^+• m/z. Papaverine internal standard was monitored with the following fragments 340.40[M+H]^+/324.20 [M−CH3]^+• m/z and 340.40 [M+H]^+/202.10 [M−C8H9O2]^+• m/z. When conducting dopamine kinetics, galanthamine was used as the internal standard and samples were not ethyl acetate extracted prior to LC/MS/MS analysis. To remove protein, two volumes of acetonitrile were added followed by 1 hr at −20° C. and 10 min centrifugation at 16,100×g, 4° C. The supernatant was dried under vacuum and re-suspended in the starting mobile phase before analysis. The HPLC time program was changed to start at 5% solvent B with solution going to waste until 3.9 min, at 5 min start linear gradient to 25% B at […], 90% B at 9.5 min, 90% B at 11 min, 5% B at 11.1 min and 5% B at 16 min. Ions monitored in the MRM were 168.00 [M+H]^+/151.00 [M+H-OH]^+ m/z and 168.00 [M+H]^+/119.00 [M−OH—OCH3]^+• m/z. AdoMet steady state kinetic parameters were determined with norbelladine as the saturated substrate. Product was quantitated using HPLC with the 28 min program used for screening enzyme assays. Product for assays on the additional NpN4OMT variants was detected with this same 28 min program on HPLC.
When conducting kinetic experiments the K, was at least five fold higher than the minimum concentration of substrate and fivefold lower than the maximum concentration of substrate tested.

CYP96T1 = biological target: T2, CYP96T1 (Narcissus aff. pseudonarcissus MK-2014, UniProt A0A140IL90); type: biochemical; conditions: for product formation as CYP96T1 substrate: LC-MS/MS
T2 construct: made in house; host or cells: Spodoptera frugiperda Sf9 cells (Baculogold baculovirus, pVL1392)
T2 sequence (A0A140IL90 1-513): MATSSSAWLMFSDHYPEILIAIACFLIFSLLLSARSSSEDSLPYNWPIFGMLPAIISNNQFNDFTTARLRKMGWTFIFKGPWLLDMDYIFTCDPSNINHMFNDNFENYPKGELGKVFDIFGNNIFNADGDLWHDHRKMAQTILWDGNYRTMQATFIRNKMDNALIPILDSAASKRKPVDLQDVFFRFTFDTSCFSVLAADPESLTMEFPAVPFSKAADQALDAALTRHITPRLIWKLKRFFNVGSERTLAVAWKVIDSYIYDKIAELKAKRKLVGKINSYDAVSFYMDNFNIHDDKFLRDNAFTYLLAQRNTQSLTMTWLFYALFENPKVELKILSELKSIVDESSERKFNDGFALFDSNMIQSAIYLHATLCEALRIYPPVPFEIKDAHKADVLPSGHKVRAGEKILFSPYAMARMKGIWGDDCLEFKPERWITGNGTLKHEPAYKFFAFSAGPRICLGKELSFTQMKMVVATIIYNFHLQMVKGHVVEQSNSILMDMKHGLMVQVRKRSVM
Experimental: Recombinant protein production of NpN4OMT and norbelladine synthase/reductase in 1 L of E. coli and purification with TALON resin followed standard methods. No proteases were added to the protein extract, and desalting was performed with PD-10 columns from GE Healthcare. Protein quantity was determined according to Bradford; purity was monitored by SDS-PAGE. The E. coli cell line containing the hexahistidine-tagged methylthioadenosine/S-adenosylhomocysteine nucleosidase (Pfs) construct from Choi-Rhee and Cronan's work was used to purify Pfs protein. CYP96T1 was co-expressed with cytochrome P450 reductase in Spodoptera frugiperda Sf9 cells using Baculogold baculoviurus (BD Biosciences). Whole cell lysates were used in CYP96T1 enzyme assays.
CYP96T1 assays contained 30 mM KPO4 pH 8.0, 1.25 mM NADPH, 10 μM substrate and 70 μl of virus infected Sf9 cell suspension in 200 μl total volume. The assays were incubated for 2-4 hr at 30° C. 4′-O-metylnorbelladine was used as an initial test compound. Substrate specificity tests were done on 4′-O-methyl-N-methylnorbelladine, norbelladine, N-methylnorbelladine, 3′-O-methylnorbelladine, 3′,4′-O-dimethylnorbelladine, haemanthamine, (S)-coclaurine, (R)-coclaurine and mixed (10aR,4bR)- and (10aS,4bS)-noroxomaritidine. Assays derivatized with sodium borohydride were incubated 2 hr at 30° C. followed by addition of 0.5 volumes 0.5 M sodium borohydride in 0.5 M sodium hydroxide and incubated 30 min at RT. The CYP96T1 assay resolved on a Chiral-CBH column and assays measured with HPLC used fresh CYP96T1 and CPR expressing SF9 cell protein prepared using re-amplified virus. Enzyme assays on all substrates were extracted as previously described and run on a QTRAP 4000 coupled to a IL-20AC XR prominence liquid auto sampler, 20AD XR prominence liquid chromatograph and Phenomenex Luna 5 μm C8(2) 250×4.60 mm column. HPLC gradient and MS settings were as previously described for NpN4OMT. Assay specific MS/MS parameters are presented in
Table 4. Multiple Reaction Monitoring (MRM) parameters for relative quantification of (10aR,4bR)- and (10aS,4bS)-noroxomaritidine, N-demethylnarwedine, narwedine and the two unknown compounds are presented in Table5. For analysis of product chirality, a Chrom Tech, Inc. Chiral-CBH 100×4.0 mm, 5 μM column was used with a 30 min isocratic flow of 2.5% HPLC grade ethanol and 10 mM ammonium acetate with pH adjusted to 7.0 with ammonium hydroxide.

T1 sequence (A0A077EWA5 whole entry): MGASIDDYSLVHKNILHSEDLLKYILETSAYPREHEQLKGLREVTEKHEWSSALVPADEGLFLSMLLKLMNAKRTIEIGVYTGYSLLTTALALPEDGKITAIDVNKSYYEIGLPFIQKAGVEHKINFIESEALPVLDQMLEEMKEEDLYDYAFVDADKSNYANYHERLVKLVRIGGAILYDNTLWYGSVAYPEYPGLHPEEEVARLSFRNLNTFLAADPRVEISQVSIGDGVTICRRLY

## [Co+2] [cobalt]
NpN4OMT1
  enzymatic activity upon addition of divalent cation: enzymatic activity improved

## COc1ccc(CN(C)CCc2ccc(O)cc2)cc1O [4′-O-Methyl-N-methylnorbelladine]
CYP96T1
  product formation as CYP96T1 substrate: One product is enzymatically produced

## COc1cc(CNCCc2ccc(O)cc2)ccc1O [3′-O-Methylnorbelladine]
CYP96T1
  product formation as CYP96T1 substrate: products were not detected

## COc1cc2c(cc1O)[C@H](Cc1ccc(O)cc1)NCC2 [(S)-Coclaurine]
CYP96T1
  product formation as CYP96T1 substrate: yield products with a mass −2 m/z

## CN(CCc1ccc(O)cc1)Cc1ccc(O)c(O)c1 [N-methylnorbelladine]
CYP96T1
  product formation as CYP96T1 substrate: Product formation is not observed

## O=Cc1ccc(O)c(O)c1 [3,4-dihydroxybenzaldehyde]
NpN4OMT1; text statement
  product formation / activity as NpN4OMT substrate: Products were not detected; also recorded: lack of enzymatic activity

## COc1cc2c(cc1O)[C@@H](Cc1ccc(O)cc1)NCC2 [(R)-Coclaurine]
CYP96T1
  product formation as CYP96T1 substrate: yield products with a mass −2 m/z

## O=C(O)/C=C/c1ccc(O)c(O)c1 [caffeic acid]
NpN4OMT1
  product formation / activity as NpN4OMT substrate: Products were not detected

## NCCc1ccc(O)c(O)c1 [dopamine]
NpN4OMT1
  product formation / activity as NpN4OMT substrate: served as a substrate, but with less efficiency
NpN4OMT1; substrate of NpN4OMT1, ± = Standard error, ND = Not detected
  kcat: 3.6 ± 0.15 min⁻¹
NpN4OMT1; substrate of NpN4OMT1, ± = Standard error, ND = Not detected, AdoMet determined with norbelladine as the saturated substrate
  Km: 7.3 ± 2.7 µM

## NCCc1ccc(O)cc1 [tyramine]
NpN4OMT1; text statement
  product formation / activity as NpN4OMT substrate: Products were not detected
NpN4OMT1; text statement, listed as Tyramine
  product formation / activity as NpN4OMT substrate: not methylated

## COc1ccc(CNCCc2ccc(O)cc2)cc1O [4′-O-Methylnorbelladine]
CYP96T1
  product formation as CYP96T1 substrate: C—C phenol coupled
CYP96T1; substrate of CYP96T1
  kcat: 15.0 ± 2.03 min⁻¹
CYP96T1; substrate of CYP96T1, production of noroxomaritidine
  kcat: 15.0 ± 2.03 L/min
CYP96T1; substrate of CYP96T1, production of (10aR,4bR)- and (10aS,4bS)-noroxomaritidine, Michaelis-Menten with substrate inhibition
  Km: 1130 ± 500 nM

## [Mg+2] [magnesium]
NpN4OMT1
  enzymatic activity upon addition of divalent cation: increased fourfold more

## COc1cc(C=O)ccc1O [vanillin]
NpN4OMT1; text statement
  product formation / activity as NpN4OMT substrate: Products were not detected

## COc1ccc(CNCCc2ccc(O)cc2)cc1OC [3′,4′-O-Dimethylnorbelladine]
CYP96T1
  product formation as CYP96T1 substrate: products were not detected

## Oc1ccc(CCNCc2ccc(O)c(O)c2)cc1 [norbelladine]
CYP96T1
  product formation as CYP96T1 substrate: Product formation is not observed
